Laboratory results as given in EP4813463A2, “TYK2 INHIBITORS AND COMPOSITIONS AND METHODS THEREOF” (Lynk Pharmaceuticals Co. Ltd., priority 2023, dated 2024).
Like-named read-outs stand apart in the source and are kept apart here.

How the values were obtained:
[1] = tested on: IFNa pSTAT1; assay: Phosphorylation of STAT1 inhibition in CCF-STTG1 cells by Jess; assay type: cell-based; settings: Homo sapiens, 0.5 h; CCF-STTG1 astrocyte cells, IFNα induction 30 mins, Jess western; read-out: Jess_CCF-STTG1 IC50 (IFNa pSTAT1)
Description: Seeding HMC3 cells into 12-well plate and incubate overnight. Pre-stimulation with recombinant human IFNα (Sino biological, H08Y), treat cells with compound with different concentration for 1hr. After compound treatment, stimulate HMC3 cells with 50ng/mL hINFα for another 1 hour (for CCF-STTG1 cells IFNα induction time is 30 mins). And then wash cells with DPBS once gently and lyse cells with pre-cooled RIPA buffer (Sigma, R0278-500ML) for 30min on ice to harvest cells. Centrifuge cell lysate for 20 mins at 12000rpm with freezer centrifuge (Thermo Scientific, Heraeus Fresco 21) to extract protein. Prepare samples with Jess Simple Wes kit (SM-WO04) and then run western blot on Jess simple western system (Protein simple, JS-4631). Collect data and analyzed with GraphPad Prism.

[2] = tested on: Caco-2 cell lines; assay: Caco-2 cell permeability; assay type: in vitro ADME; settings: Caco-2; result in words
Description: (§1) Compounds permeability was evaluated using Caco-2 cell lines. HBSS buffer was used as transfer buffer. Appropriate dosing and receiver solutions were applied to the donor and receiver chambers to initiate the transport assay in apical to basolateral (A to B) or basolateral to apical (B to A) directions. Compounds were tested at 10.0 µM in the absence of p-gp inhibitor bidirectionally in duplicates. After incubation at 37°C for 90 mins, donor and receiver samples were analyzed by LC-MS/MS. The intestinal absorption potential was assessed using Papp value and efflux ratio.

[3] = Caco-2 cell permeability; assay type: in vitro ADME; settings: human, Caco-2, 10.0 µM, no p-gp inhibitor
Description: as §1

[4] = Pharmacokinetic study in rats; assay type: in vivo; settings: rat, plasma, Sprague-Dawley rats, solution
Description: Pharmacokinetic profiles of test articles were evaluated in fasted mouse, Sprague-Dawley rats and Beagle dogs. After dosing, blood samples were collected at each time point. For IV injection group, time points were set at 5, 15, 30 min, and then 1, 2, 4, 8 and 24 hours after dosing. For oral gavage group,#time points were set at 15, 30 min, and then 1, 2, 4, 8, and 24 hours. Blood was collected into appropriately labeled tubes containing K2EDTA as the anticoagulant. Plasma was obtained within 1 hours of blood collection by centrifugation at 8000×g and 4 °C for 6 minutes, and then stored at -20 °C until analyzed by LC/MS/MS for quantification. PK parameter values, including, but not necessarily limited to, the maximum plasma concentrations (Cmax), the time to reach the maximum concentrations (Tmax), and the area under the plasma concentration vs. time curve (AUC) from time zero to 24-hour (AUC0-24h) were determined using WinNonlin program. Table 17. […]

[5] = tested on: IFNa pSTAT1; assay: Phosphorylation of STAT1 inhibition in HMC3 cells with HTRF assay; assay type: cell-based; settings: Homo sapiens, HMC3 microglia cells, 50ng/mL hINFα 1 hour, read-out: HTRF_HMC3 IC 50 (IFNa pSTAT1)
Description: Seeding HMC3 cells into 96-well plate and incubate overnight. Pre-stimulation with recombinant human IFNα (Sino biological, H08Y), treat cells with compound with different concentration for 1hr. After compound treatment, stimulate cells with 50ng/mL hINFα for another 1 hour (for CCF-STTG1 cells IFNα induction time is 30 mins). After compound treatment and cytokine stimulation, dump old medium and lyse cells with supplemented lysis buffer provided by the HTRF kit (Revvity, 63ADK026PEG) for 30 min at room temperature under shaking. After homogenization by pipetting up and down, transfer 16 µL of cell lysate from the 96-well cell-culture plate to a small volume white 384-well plate, and then add 4 µL of pre-mixed two ready-to-use antibody working solution into each wells. Cover the plate with a plate sealer and incubate it overnight at room temperature. Read the fluorescence emission at two different wavelengths (665nm and 620nm) on microplate reader (Molecular Device, SpectraMax i3X). Collect data and analyzed with GraphPad Prism.

[6] = tested on: TYK2 pathway; assay: IFN-γ release in NK92 cells stimulated by IL-12 (ELISA); assay type: cell-based; settings: IL-12 2.5ng/mL stimulation 15hrs, IFN-γ in supernatant by ELISA
Description: IFN-γ Release in NK92 Cells Stimulated by IL-12
Purpose: To evaluate the inhibition activity of TYK2 inhibitors in NK92 cells on TYK2 pathway through ELISA method.
Procedure: 1) Seeding NK92 cells into 96-well plate, cell density is 1.5E5 cells/well, 100uL/well; 2)Add prepared test articles into indicated wells, 50uL/well, and continue incubate for 1h, at 37°C; 3) After compound treatment, add 50uL/well IL-12 into indicated wells, final concentration of IL-12 is 2.5ng/mL; 4)Incubate cytokine stimulated cells at 37°C for another 15hrs in CO2 incubator; 5) After cytokine stimulation, transfer culture supernatant into a new plate and centrifuge for 5min at 350x g, and detect IFN-γ concentration in the supernatant with ELISA kit; 6) Data analysis with GrapdPad Prism6.0 software. Table 5. IC50 Values of Exemplary Compounds on TYK2 Pathway

[7] = Mice colon pharmacokinetic studies; assay type: in vivo; settings: mouse, female Balb/c mice, oral gavage, 10 mg/kg; for half-life: read-out: Plasma T1/2 (converted)
Description: Pharmacokinetic studies were investigated using female Balb/c mice to determine plasma and colon exposure of tested compounds. Compounds were administrated via oral gavage in a formulation of 0.5% Methocel (A4M) + 0.1% Tween80 in water to Balb/c mic. Animals were anesthetized at the designated time points, plasma, colon tissue and colonic contents samples were collected. Tissue samples were homogenized using MeOH : PBS(1:1). All samples were analyzed by LC-MS/MS.

[8] = read-out: Efflux Ratio: Papp(B-A)/Papp(A-B)
[9] = plasma, read-out: Plasma AUC0-24
[10] = colon tissue, read-out: Colon AUC0-24
[11] = colonic contents, read-out: Colon content AUC0-24

SMILES: [2H]C([2H])([2H])O[C@@H](c1ccc2c(c(Nc3cc(NC(=O)C4CC4)ncc3C(=O)OC)nn2C)c1OC)C(F)(F)F [Example 50B, Methyl (S)-6-(cyclopropanecarboxamido)-4-((4-methoxy-1-methyl-5-(2,2,2-trifluoro-1-(methoxy-d3)ethyl)-1H-indazol-3-yl)amino)nicotinate]
- IC50 [1]: 3.73 nM

SMILES: COC(=O)c1cnc(NC(=O)C2CC2)cc1Nc1nn(C)c2ccc([C@H](OC)C(F)(F)F)c(OC)c12 [Example 45B, Methyl (S)-6-(cyclopropanecarboxamido)-4-((4-methoxy-1-methyl-5-(2,2,2-trifluoro-1-methoxyethyl)-1H-indazol-3-yl)amino)nicotinate]
- IC50 [1]: 3.5 nM
- efflux ratio compared with the amide compounds 21,23,25,33,49A and BMS986165 [2]: lower efflux ratio numbers
- Papp A→B at 90 min, 10 µM ([3]; 90 mins, A to B): 7.27 ×10⁻⁶ cm/s
- Papp B→A at 90 min, 10 µM ([3]; 90 mins, B to A): 5.65 ×10⁻⁶ cm/s
- efflux ratio at 90 min, 10 µM [3, 8]: 0.78

SMILES: [2H]C([2H])([2H])NC(=O)c1cnc(NC(=O)C2CC2)cc1Nc1nn(C)c2ccc([C@H](OC([2H])([2H])[2H])C(F)(F)F)c(OC)c12 [Example 55A, (S)-6-(cyclopropanecarboxamido)-4-((4-methoxy-1-methyl-5-(2,2,2-trifluoro-1-(methoxy-d3)ethyl)-1H-indazol-3-yl)amino)-N-(methyl-d3)nicotinamide]
- AUC ([4]; intravenous, 3 mg/kg): 3.65 µg·h/mL
- Vd ([4]; intravenous, 3 mg/kg): 2.05 L/kg
- clearance ([4]; intravenous, 3 mg/kg): 13.6 mL/min/kg
- half-life ([4]; intravenous, 3 mg/kg): 2.56 h
- AUC ([4]; oral, 5 mg/kg): 2.95 µg·h/mL
- Cmax ([4]; oral, 5 mg/kg): 409 ng/mL
- bioavailability ([4]; oral, 5 mg/kg): 48.6%
- half-life ([4]; oral, 5 mg/kg): 2.67 h
- IC50 [5]: 0.192 nM

SMILES: [2H]C([2H])([2H])NC(=O)c1cnc(Nc2cc(C)nc(C)n2)cc1Nc1cnn2ccc([C@H](O)C(F)(F)F)c(OC)c12 [Example 25, (S)-6-((2,6-Dimethylpyrimidin-4-yl)amino)-4-((4-methoxy-5-(2,2,2-trifluoro-1-hydroxyethyl)pyrazolo[1,5-a]pyridin-3-yl)amino)-N-(methyl-d3)nicotinamide]
- Papp A→B at 90 min, 10 µM ([3]; 90 mins, A to B): 2.57 ×10⁻⁶ cm/s
- Papp B→A at 90 min, 10 µM ([3]; 90 mins, B to A): 62.3 ×10⁻⁶ cm/s
- efflux ratio at 90 min, 10 µM [3, 8]: 24.2
- IC50 [6]: 7.18 nM

SMILES: [2H]C([2H])([2H])NC(=O)c1cnc(NC(=O)C2CC2)cc1Nc1cnn2ccc([C@H](O)C(F)(F)F)c(OC)c12 [Example 7A, (S)-6-(cyclopropanecarboxamido)-4-((4-methoxy-5-(2,2,2-trifluoro-1-hydroxyethyl)pyrazolo[1,5-a]pyridin-3-yl)amino)-N-(methyl-d3)nicotinamide]
- AUC ([4]; intravenous, 1 mg/kg): 0.317 µg·h/mL
- Vd ([4]; intravenous, 1 mg/kg): 3.3 L/kg
- clearance ([4]; intravenous, 1 mg/kg): 53.2 mL/min/kg
- half-life ([4]; intravenous, 1 mg/kg): 0.84 h
- AUC ([4]; oral, 10 mg/kg): 0.258 µg·h/mL
- Cmax ([4]; oral, 10 mg/kg): 31.3 ng/mL
- bioavailability ([4]; oral, 10 mg/kg): 8.1%
- half-life ([4]; oral, 10 mg/kg): 4.91 h
- IC50 [1]: 6.82 nM
- IC50 [6]: 9.1 nM
- Cmax ([7]; plasma): 426 ng/mL
- Tmax ([7]; plasma): 0.25 h
- AUC(0-t) [7, 9]: 0.599 µg·h/mL
- half-life ([7]; plasma): 1.75 h
- AUC(0-t) [7, 10]: 45.8 µg·h/mL
- AUC(0-t) [7, 11]: 1430 µg·h/mL

SMILES: [2H]C([2H])([2H])NC(=O)c1nnc(NC(=O)C2CC2)cc1Nc1cnn2ccc([C@H](O)C(F)(F)F)c(OC)c12 [Example 30, (S)-6-(cyclopropanecarboxamido)-4-((4-methoxy-5-(2,2,2-trifluoro-1-hydroxyethyl)pyrazolo[1,5-a]pyridin-3-yl)amino)-N-(methyl-d3)pyridazine-3-carboxamide]
- IC50 [6]: 6.72 nM

SMILES: [2H]C([2H])([2H])NC(=O)c1cnc(NC(=O)C2CC2)cc1Nc1nn(C)c2ccc([C@H](O)C(F)(F)F)c(OC)c12 [Example 49A, (S)-6-(cyclopropanecarboxamido)-4-((4-methoxy-1-methyl-5-(2,2,2-trifluoro-1-hydroxyethyl)-1H-indazol-3-yl)amino)-N-(methyl-d3)nicotinamide]
- AUC ([4]; intravenous, 2 mg/kg): 0.904 µg·h/mL
- Vd ([4]; intravenous, 2 mg/kg): 2.2 L/kg
- clearance ([4]; intravenous, 2 mg/kg): 38.2 mL/min/kg
- half-life ([4]; intravenous, 2 mg/kg): 1.04 h
- AUC ([4]; oral, 10 mg/kg): 0.418 µg·h/mL
- Cmax ([4]; oral, 10 mg/kg): 74.2 ng/mL
- bioavailability ([4]; oral, 10 mg/kg): 9.25%
- half-life ([4]; oral, 10 mg/kg): 3.14 h
- Papp A→B at 90 min, 10 µM ([3]; 90 mins, A to B): 1.32 ×10⁻⁶ cm/s
- Papp B→A at 90 min, 10 µM ([3]; 90 mins, B to A): 66.6 ×10⁻⁶ cm/s
- efflux ratio at 90 min, 10 µM [3, 8]: 50.3
- IC50 [5]: < 0.061 nM
- Cmax ([7]; plasma): 1340 ng/mL
- Tmax ([7]; plasma): 0.25 h
- AUC(0-t) [7, 9]: 1.22 µg·h/mL
- half-life ([7]; plasma): 1.03 h
- AUC(0-t) [7, 10]: 21.3 µg·h/mL
- AUC(0-t) [7, 11]: 1590 µg·h/mL

SMILES: COC(=O)c1cnc(NC(=O)[C@@H]2C[C@@H]2F)cc1Nc1nn(C)c2ccc(C(O)C(F)(F)F)c(OC)c12 (single isomer, unassigned) [Example 122A, Methyl 6-((1S,2S)-2-fluorocyclopropane-1-carboxamido)-4-((4-methoxy-1-methyl-5-((S*)-2,2,2-trifluoro-1-hydroxyethyl)-1H-indazol-3-yl)amino) nicotinate]
- efflux ratio compared with the amide compounds 21,23,25,33,49A and BMS986165 [2]: lower efflux ratio numbers
- Papp A→B at 1.5 h, 10 µM ([3]; 90 mins, A to B): 27.4 ×10⁻⁶ cm/s
- Papp B→A at 1.5 h, 10 µM ([3]; 90 mins, B to A): 45.3 ×10⁻⁶ cm/s
- efflux ratio at 1.5 h, 10 µM [3, 8]: 1.65
- IC50 [5]: < 0.061 nM

SMILES: [2H]C([2H])([2H])NC(=O)c1cnc(Nc2ccn(C)n2)cc1Nc1cnn2ccc([C@H](O)C(F)(F)F)c(OC)c12 [Example 21, (S)-4-((4-methoxy-5-(2,2,2-trifluoro-1-hydroxyethyl)pyrazolo[1,5-a]pyridin-3-yl)amino)-N-(methyl-d3)-6-((1-methyl-1H-pyrazol-3-yl)amino)nicotinamide]
- Papp A→B at 90 min, 10 µM ([3]; 90 mins, A to B): 0.71 ×10⁻⁶ cm/s
- Papp B→A at 90 min, 10 µM ([3]; 90 mins, B to A): 47.4 ×10⁻⁶ cm/s
- efflux ratio at 90 min, 10 µM [3, 8]: 67
- IC50 [6]: 14.5 nM

SMILES: [2H]C([2H])([2H])NC(=O)c1cnc(NC(=O)C2CC2)cc1Nc1cnn2ccc([C@H](OC)C(F)(F)F)c(OC)c12 [Example 27, (S)-6-(cyclopropanecarboxamido)-4-((4-methoxy-5-(2,2,2-trifluoro-1-methoxyethyl)pyrazolo[1,5-a]pyridin-3-yl)amino)-N-(methyl-d3)nicotinamide]
- IC50 [6]: 6.02 nM
